Reference: patent publication US7816406B2, “Quinolone analogs” (Cylene Pharmaceuticals, Inc., priority 2004, dated 2010)
pIC50: −log10 of the molar value. Read-outs that look alike come from different tables or passages of the source.

How the values were obtained:
c-Myc template DNA = test: Quadruplex binding assay (STOP / Taq polymerase arrest, capillary electrophoresis); type: biochemical; details: concentration at which 50% of the DNA was arrested (arrested:full-length 1:1)
Method: Generally, a 5′-fluorescent-labeled (FAM) primer (P45, 15 nM) was mixed with template DNA (15 nM) in a Tris-HCL buffer (15 mM Tris, pH 7.5) containing 10 mM MgCl2, 0.1 mM EDTA and 0.1 mM mixed deoxynucleotide triphosphates (dNTP's). In one example, the FAM-P45 primer (5′ -6FAM-[…] CAATT-3′) (SEQ ID NO. 17) and the c-Myc template DNA (5′-[…] […] […]-3′) (SEQ ID NO. 18) were synthesized and HPLC purified by Applied Biosystems. The mixture was denatured at 95° C. for 5 minutes and, after cooling down to room temperature, was incubated at 37° C. for 15 minutes.
After cooling down to room temperature, 1 mM KCl2 and the test compound (various concentrations) were added and the mixture incubated for 15 minutes at room temperature. The primer extension was performed by adding 10 mM KCl and Taq DNA Polymerase (2.5 U/reaction, Promega) and incubating at 70° C. for 30 minutes. The reaction was stopped by adding 1 μl of the reaction mixture to 10 μl Hi-Di Formamide mixed and 0.25 μl LIZ120 size standard. Hi-Di Formamide and LIZ120 size standard were purchased from Applied Biosystems. The partially extended quadruplex arrest product was between 61 or 62 bases long and the full-length extended product was 99 bases long. The products were separated and analyzed using capillary electrophoresis. Capillary electrophoresis was performed using an ABI PRISM 3100-Avant Genetic Analyzer. The assay was performed using compounds described above and results are shown in Table 1. μM concentrations reported in Table 1 are concentrations at which 50% of the DNA was arrested in the assay (ie., the ratio of shorter partially extended DNA (arrested DNA) to full-length extended DNA is 1:1).
Stop Assays. Stop assays are high throughput, first-pass screens for detecting drugs that bind to and stabilize the target G-quadruplex. Generally, DNA template oligonucleotide is created, which contains the nucleotide sequence of the “target” quadruplex against which drug screening is desired. A fluorescently labeled primer DNA is then annealed to the 3′ end of the template DNA. A DNA polymerase such as Taq polymerase is then introduced to synthesize a complementary strand of DNA by extending from the fluorescently labeled primer. When the progress of the Taq polymerase is unhindered, it synthesizes a full-length copy of the template. […] If, however, the test drug selectively binds to and stabilizes the quadruplex, the progress of polymerase arrests only at the quadruplex, and a characteristic “Stop Product” is synthesized.
Compounds are initially screened at a single concentration, and “hits” are re-assayed over a range of doses to determine an IC50 value (i.e., the concentration of drug required to produce an arrest product/full-length product ratio of 1:1). These products are visualized by capillary electrophoresis.

HCT-116 = test: MTS cell proliferation assay, HCT-116; type: cell-based
Method: MTS assays. Antiproliferative effects of anticancer drugs are tested by the CellTiter 96 AQueous assay (Promega, WI), which is a colorimetric assay for determining the number of viable cells. (See, e.g., Wang, L., et al., Methods Cell Sci (1996) 18:249-255). Generally, cells (2,000 to 5,000 cells/well) are seeded on 96 well flat bottom plates (Corning, NY) in 100 μl of culture medium without any anticancer drug on day 0, and the culture medium is exchanged for that contained anticancer drugs at various concentrations on day 1. After incubation for 3 days under normal growth conditions (on day 4), the monolayers are washed once in PBS, and the medium is switched to 100 μl of PBS in each of the 96 well plate. After mixing MTS and PMS at the ratio of 20:1, 20 μl of MTS/PMS solution is added to each of the 96 well plate and incubated for 4 hours in a humidified atmosphere of 5% CO2 at 37° C. The absorbance is read at 490 nm using FLUOstar Galaxy 96 well plate reader (BMG Labtechnologies, Germany).

HCT116 cells = test: HCT-116 colorectal cancer xenograft model, intravenous dosing; type: in vivo; details: IV bolus, nu/nu mice
Method: 6 wk old female nu/nu mice were purchased from Taconic Farms, Germantown N.Y. They were injected with 5×10^6 HCT116 cells SQ in right flank. When tumors reached sufficient size for study, they were randomized into groups. • Vehicle: 242.9 mm^3 • Test compound: 251.0 mm^3
Animals dosed by bolus injection—IV through lateral tail vein for five consecutive days. Caliper measurements were taken on Day 1, 4, 6.
6 wk old female nu/nu mice were purchased from Simonsen Labs, Gilroy, Calif. They were injected with 5×10^6 HCT116 cells SQ in right flank. When tumors reached sufficient size for study, they were randomized into groups. • Vehicle: 101.9 mm^3 • Test compound: 152.8 mm^3
Animals dosed by bolus injection—IV through lateral tail vein for fourteen consecutive days. Caliper measurements were taken on Day 1, 3, 5, 7, 10, 12, 14, and 18.
6 wk old female nu/nu mice were purchased from Simonsen Labs, Gilroy, Calif. They were injected with 5×10^6 HCT116 cells SQ in right flank. When tumors reached sufficient size for study, they were randomized into groups. • Vehicle: 114.6 mm^3 • Test compound: 106.1 mm^3 • Test compound: 84.1 mm^3
Animals dosed by bolus injection—IV through lateral tail vein for fourteen consecutive days. Caliper measurements were taken on Day 1, 4, 6, 8, 12, and 15.
6 wk old female nu/nu mice were purchased from Taconic Farms, Germantown N.Y. They were injected with 5×10^6 HCT116 cells SQ in right flank. When tumors reached sufficient size for study, they were randomized into groups. • Vehicle: 242.9 mm^3 • Test compound: 252.1 mm^3
Animals dosed by bolus injection—IV through lateral tail vein for five consecutive days. Caliper measurements were taken on Day 1, 4, and 6.
6 wk old female nu/nu mice were purchased from Taconic Farms, Germantown N.Y. They were injected with 5×10^6 HCT116 cells SQ in right flank. When tumors reached sufficient size for study, they were randomized into groups. • Vehicle: 242.9 mm^3 • Test compound: 236.1 mm^3
6 wk old female nu/nu mice were purchased from Taconic Farms, Germantown N.Y. They were injected with 5×10^6 HCT116 cells SQ in right flank. When tumors reached sufficient size for study, they were randomized into groups. • Vehicle: 242.9 mm^3 • Test compound: 254.7 mm^3
6 wk old female nu/nu mice were purchased from Taconic Farms, Germantown N.Y. They were injected with 5×10^6 HCT116 cells SQ in right flank. When tumors reached sufficient size for study, they were randomized into groups.
Animals dosed by bolus injection—IV through lateral tail vein for nine consecutive days. Caliper measurements were taken on Day 1, 3, 5, 7, and 9.
Animals dosed by bolus injection—IV through lateral tail vein for seven consecutive days. Caliper measurements were taken on Day 1, 3, 5, and 7.

[1] = Homo sapiens, HCT-116, HCT-116, Table 1A, read-out: HCT-116 MTs
[2] = 25 mg/kg, five consecutive days
[3] = Homo sapiens, HCT-116, M CELL HCT-116, Table 1C, read-out: M DATA
[4] = 25 and 12.5 mg/kg, seven consecutive days
[5] = 12.5 mg/kg, fourteen consecutive days
[6] = different dose levels, fourteen consecutive days

Structure (SMILES)	pIC50 (c-Myc template DNA)	pIC50 (HCT-116; [1])	also measured
CC(C)N1CCN(c2cc3c(=O)c(C(=O)NCCC4CCCN4C)c4sc5ccccc5n4c3cc2Cl)CC1 (stereo not shown)	< 4.82	–	–
O=C(NCCN1CCCC1)c1c(=O)c2cnc(N3CCCC3)nc2n2c1sc1ccccc12 [drawing 654]	–	–	activity in HCT116 xenograft (HCT116 cells; [2]): activity; adverse effects (HCT116 cells; [2]): no adverse effects observed
Cn1c2ccccc2n2c3cc(N4CCC(c5cnccn5)C4)c(F)cc3c(=O)c(C(=O)NCCN3CCCC3)c12 (stereo not shown)	5.09	7.00	–
O=C(NCCN1CCCC1)c1c(=O)c2ccc(NCCN3CCOCC3)nc2n2c1sc1ccccc12 [drawing 307]	–	–	pIC50 (HCT-116; [3]): 7.70
CC(C)N1CCN(c2cc3c(cc2F)c(=O)c(C(=O)NCCN2CCCC2)c2sc4ccccc4n23)CC1	5.05	6.52	–
O=C(NCCN1CCCC1)c1c(=O)c2cnc(N3CCCC3)nc2n2c1sc1ccc(Cl)cc12 [drawing 212]	–	–	pIC50 (HCT-116; M CELL HCT-116, Table 1C, read-out: M DATA): 6.68
O=C(NCCN1CCCC1)c1c(=O)c2cc(F)c(SCCc3cnccn3)cc2n2c1sc1ccccc12 [drawing 15]	5.24	6.24	–
Cn1c2ccccc2n2c3cc(F)c(F)cc3c(=O)c(C(=O)NCCN3CCCC3)c12	4.82	6.52	–
CC(C)N1CCN(c2cc3c(cc2F)c(=O)c(C(=O)NCCC2CCCN2C)c2n(C)c4ccccc4n32)CC1 (stereo not shown)	4.82	6.52	–
CC(C)N1CCN(c2nc3c(cc2F)c(=O)c(C(=O)NCCC2CCCN2C)c2sc4ccc(Cl)cc4n23)CC1 (stereo not shown)	–	–	activity in HCT116 xenograft (HCT116 cells; [2]): activity; adverse effects (HCT116 cells; [2]): no adverse effects observed
CN1CCCC1CCNC(=O)c1c(=O)c2ccc(N3CCC(c4cnccn4)C3)nc2n2c1sc1ccc(Cl)cc12 (stereo not shown) [drawing 656]	–	–	activity in HCT116 xenograft (HCT116 cells; [4]): excellent activity with minimal dose dependency; adverse effects (HCT116 cells; [4]): No adverse effects were observed
CC(=O)N1CCN(c2nc3c(cc2F)c(=O)c(C(=O)NCCN2CCCC2)c2n(C)c4ccccc4n32)CC1 [drawing 655]	–	–	adverse effects (HCT116 cells; 25 and 12.5 mg/kg, nine consecutive days): no adverse effects observed; activity in HCT116 xenograft (HCT116 cells; high dose (25 mg/kg), nine consecutive days): limited activity; activity in HCT116 xenograft (HCT116 cells; mid dose (12.5 mg/kg), nine consecutive days): no activity
CN(C)CCN(C)c1ccc2c(=O)c(C(=O)NCCC3CCCN3C)c3sc4ccccc4n3c2n1 (stereo not shown) [drawing 385]	–	–	pIC50 (HCT-116; [3]): 7.70
CC(=O)N1CCN(c2ccc3c(=O)c(C(=O)NCCN4CCCC4)c4n(C)c5ccccc5n4c3n2)CC1	–	–	activity in HCT116 xenograft (HCT116 cells; [5]): activity; adverse effects (HCT116 cells; [5]): no adverse effects observed; activity in HCT116 xenograft (HCT116 cells; [6]): dose dependent activity; adverse effects (HCT116 cells; [6]): no adverse effects observed
NC1CCN(c2nc3c(cc2F)c(=O)c(C(=O)NCCN2CCCC2)c2sc4ccccc4n23)C1 (stereo not shown)	–	–	activity in HCT116 xenograft (HCT116 cells; [2]): activity; adverse effects (HCT116 cells; [2]): no adverse effects observed
CC(=O)N1CCN(c2ncc3c(=O)c(C(=O)NCCN4CCCC4)c4sc5ccccc5n4c3n2)CC1 [drawing 653]	–	–	activity in HCT116 xenograft (HCT116 cells; [2]): activity; adverse effects (HCT116 cells; [2]): no adverse effects observed

The next lines start with results.

pIC50 (c-Myc template DNA)	pIC50 (HCT-116; [1])	Structure (SMILES)	also measured
< 4.82	–	CC(C)N1CCN(c2cc3c(cc2F)c(=O)c(C(=O)NCCN2CCCC2)c2n(C)c4ccccc4n32)CC1	–
4.98	6.15	CN1CCCC1CCNC(=O)c1c(=O)c2cc(F)c(N3CCC(c4cnccn4)C3)cc2n2c3ccccc3n(C)c12 (stereo not shown)	–
5.14	5.96	CN1CCCC1CCNC(=O)c1c(=O)c2cc(F)c(SCCc3cnccn3)cc2n2c1sc1ccccc12 (stereo not shown) [drawing 14]	–
5.03	5.24	COc1ccc2c(c1)sc1c(C(=O)NCCC3CCCN3C)c(=O)c3cc(F)c(SCCc4cnccn4)cc3n12 (stereo not shown)	–
5.89	5.47	CN1CCCC1CCNC(=O)c1c(=O)c2cc(F)c(N3CCC(c4cnccn4)C3)cc2n2c1sc1ccccc12 (stereo not shown)	–
4.94	5.46	O=C(NCCN1CCCC1)c1c(=O)c2cc(F)c(N3CCC(c4cnccn4)C3)c(F)c2n2c1sc1ccccc12 (stereo not shown)	–
5.77	5.45	CN1CCCC1CCNC(=O)c1c(=O)c2cc(F)c(SCCc3cnccn3)cc2n2c1sc1cc(Cl)ccc12 (stereo not shown)	–
5.00	5.21	CN1CCCC1CCNC(=O)c1c(=O)c2cc(SCCc3cnccn3)ccc2n2c1sc1ccccc12 (stereo not shown)	–
